This is an account of results in patent US7700592B2, “α2C adrenoreceptor agonists” (Schering Corporation, priority 2005, dated 2010).

The target of this experiment is T1, α2C receptor (Homo sapiens, UniProt P18825).
T1 sequence (P18825 1-462): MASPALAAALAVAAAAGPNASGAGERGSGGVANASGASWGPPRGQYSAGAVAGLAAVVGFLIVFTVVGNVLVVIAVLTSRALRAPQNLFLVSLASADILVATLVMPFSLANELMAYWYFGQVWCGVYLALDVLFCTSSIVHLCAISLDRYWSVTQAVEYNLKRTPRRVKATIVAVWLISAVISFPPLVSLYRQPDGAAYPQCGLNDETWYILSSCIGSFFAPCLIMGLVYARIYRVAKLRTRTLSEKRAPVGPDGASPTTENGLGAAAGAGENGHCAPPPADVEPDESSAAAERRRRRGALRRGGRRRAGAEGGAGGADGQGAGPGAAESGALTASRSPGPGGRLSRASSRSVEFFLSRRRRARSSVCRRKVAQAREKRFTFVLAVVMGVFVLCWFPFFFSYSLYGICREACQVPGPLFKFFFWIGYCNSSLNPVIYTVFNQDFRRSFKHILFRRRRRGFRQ
Nature of the experiment: GTPγS assay, efficacy agonist activity (Emax) for α2C. Conditions: active agonist = efficacy at α2C ≧30% Emax; functionally selective = additionally efficacy at α2A ≦30% Emax (GTPγS assay). Format: biochemical. From the text: For the purposes of this present invention, a compound is defined to be an active agonist of the α2C receptor subtype if the compound's efficacy at the α2C receptor is ≧30% Emax (GTPγS assay). A compound is a functionally selective agonist of the α2C receptor subtype over the α2A receptor subtype if the compound's efficacy at the α2C receptor is ≧30% Emax (GTPγS assay) and its efficacy at the α2A receptor is ≦30% Emax (GTPγS assay).
Efficacy agonist activity values (Emax, GTPγS assay) for α2C were determined by following the general procedure detailed by Umland et al (“Receptor reserve analysis of the human α2c-adrenoceptor using [^35S]GTPγS and cAMP functional assays” European Journal of Pharmacology 2001, 411, 211-221). For the purposes of the present invention, a compound is defined to be an active agonist of the α2C receptor subtype if the compound's efficacy at the α2C receptor is ≧30% Emax (GTPγS assay). A compound is a functionally selective agonist of the α2C receptor subtype over the α2A receptor subtype if the compound's efficacy at the α2C receptor is […] Emax (GTPγS assay) and its efficacy at the α2A receptor is ≦30% Emax (GTPγS assay).
Consider `CCN(C(=O)OCCOC)c1ccc2c(c1)N(Cc1c[nH]cn1)CCO2` [Compound 160], for which the “Efficacy agonist activity (Emax, GTPγS assay) for α2C: evaluated as active or functionally selective agonist” value was “active or functionally selective agonists of the α2C receptor subtype”.

Consider `CCN(C(=O)OCc1cc(C)n(C)n1)c1ccc2c(c1)N(Cc1c[nH]cn1)CCO2` [Compound 324], for which the “Efficacy agonist activity (Emax, GTPγS assay) for α2C: evaluated as active or functionally selective agonist” value is listed as “active or functionally selective agonists of the α2C receptor subtype”.

As to `N#CCCOC(=O)Nc1ccc2c(c1)N(Cc1c[nH]cn1)CCO2` [Compound 247], the “Efficacy agonist activity (Emax, GTPγS assay) for α2C: evaluated as active or functionally selective agonist” value was “active or functionally selective agonists of the α2C receptor subtype”.

Regarding `N#Cc1ccc(COC(=O)Nc2ccc3c(c2)N(Cc2c[nH]cn2)CCO3)cc1` [Compound 248], the “Efficacy agonist activity (Emax, GTPγS assay) for α2C: evaluated as active or functionally selective agonist” value is “active or functionally selective agonists of the α2C receptor subtype”.

Take `CCN(C(=O)OC)c1ccc2c(n1)N(Cc1c[nH]cn1)CCO2` [Compound 53]: the “Efficacy agonist activity (Emax, GTPγS assay) for α2C: evaluated as active or functionally selective agonist” value is reported as “active or functionally selective agonists of the α2C receptor subtype”.

In the case of `O=C(Nc1ccc2c(c1)N(Cc1c[nH]cn1)CCO2)OCc1nc2ccccc2s1` [Compound 312], the “Efficacy agonist activity (Emax, GTPγS assay) for α2C: evaluated as active or functionally selective agonist” value is recorded as “active or functionally selective agonists of the α2C receptor subtype”.

For the compound `CNC(=O)N(C)c1cc(C)c2c(c1)N(Cc1c[nH]cn1)CCO2` [Compound 239], the “Efficacy agonist activity (Emax, GTPγS assay) for α2C: evaluated as active or functionally selective agonist” value is reported as “active or functionally selective agonists of the α2C receptor subtype”.

As for `O=C(NCc1cccc(F)c1)Nc1ccc2c(c1)N(Cc1c[nH]cn1)CCO2` [Compound 308], the “Efficacy agonist activity (Emax, GTPγS assay) for α2C: evaluated as active or functionally selective agonist” value is on record as “active or functionally selective agonists of the α2C receptor subtype”.

Consider `CCN(C(=O)OCc1ccncc1)c1ccc2c(c1)N(Cc1c[nH]cn1)CCO2` [Compound 276], for which the “Efficacy agonist activity (Emax, GTPγS assay) for α2C: evaluated as active or functionally selective agonist” value is “active or functionally selective agonists of the α2C receptor subtype”.

With `O=C(NCCc1cccs1)Nc1ccc2c(c1)N(Cc1c[nH]cn1)CCO2` [Compound 297], the “Efficacy agonist activity (Emax, GTPγS assay) for α2C: evaluated as active or functionally selective agonist” value is “active or functionally selective agonists of the α2C receptor subtype”.

With `N#Cc1ccc2c(n1)N(Cc1c[nH]cn1)CCO2` [Compound 55], the “Efficacy agonist activity (Emax, GTPγS assay) for α2C: evaluated as active or functionally selective agonist” value is on record as “active or functionally selective agonists of the α2C receptor subtype”.

`COC(=O)N(C)c1cc(F)c2c(c1)N(Cc1c[nH]cn1)CCO2` [Compound 135]: the “Efficacy agonist activity (Emax, GTPγS assay) for α2C: evaluated as active or functionally selective agonist” value is given as “active or functionally selective agonists of the α2C receptor subtype”.

As to `COC(=O)N1CCN(Cc2c[nH]cn2)c2ccccc21` [Compound 26B], the “Efficacy agonist activity (Emax, GTPγS assay) for α2C: evaluated as active or functionally selective agonist” value is listed as “active or functionally selective agonists of the α2C receptor subtype”.

`CCCCOC(=O)N(C)c1ccc2c(c1)N(Cc1c[nH]cn1)CCO2` [Compound 256]: the “Efficacy agonist activity (Emax, GTPγS assay) for α2C: evaluated as active or functionally selective agonist” value is on record as “active or functionally selective agonists of the α2C receptor subtype”.

On to `N#Cc1ccc2c(c1)N(Cc1c[nH]cn1)CCO2` [Compound 12], for which the “Efficacy agonist activity (Emax, GTPγS assay) for α2C: evaluated as active or functionally selective agonist” value is given as “active or functionally selective agonists of the α2C receptor subtype”.

Take `COC(=O)Nc1ccc2c(n1)N(Cc1c[nH]cn1)CCO2` [Compound 137]: the “Efficacy agonist activity (Emax, GTPγS assay) for α2C: evaluated as active or functionally selective agonist” value was “active or functionally selective agonists of the α2C receptor subtype”.

Turning to `O=C(NCc1ccc(F)cc1)Nc1ccc2c(c1)N(Cc1c[nH]cn1)CCO2` [Compound 307], the “Efficacy agonist activity (Emax, GTPγS assay) for α2C: evaluated as active or functionally selective agonist” value is “active or functionally selective agonists of the α2C receptor subtype”.

For `CCN(C(=O)OCc1cn2ccsc2n1)c1ccc2c(c1)N(Cc1c[nH]cn1)CCO2` [Compound 289], the “Efficacy agonist activity (Emax, GTPγS assay) for α2C: evaluated as active or functionally selective agonist” value is “active or functionally selective agonists of the α2C receptor subtype”.

As for `CCCN(C(=O)NC)c1ccc2c(c1)N(Cc1c[nH]cn1)CCO2` [Compound 238], the “Efficacy agonist activity (Emax, GTPγS assay) for α2C: evaluated as active or functionally selective agonist” value was “active or functionally selective agonists of the α2C receptor subtype”.

As to `CNC(=O)N(C)c1ccc2c(c1)N(Cc1c[nH]cn1)CCCO2` [Compound 223], the “Efficacy agonist activity (Emax, GTPγS assay) for α2C: evaluated as active or functionally selective agonist” value is on record as “active or functionally selective agonists of the α2C receptor subtype”.

As to `c1cnc2c(c1)OCCN2Cc1c[nH]cn1` [Compound 117], the “Efficacy agonist activity (Emax, GTPγS assay) for α2C: evaluated as active or functionally selective agonist” value is on record as “active or functionally selective agonists of the α2C receptor subtype”.

On to `CCN(C(=O)OCc1cc(C)nn1C)c1ccc2c(c1)N(Cc1c[nH]cn1)CCO2` [Compound 323], for which the “Efficacy agonist activity (Emax, GTPγS assay) for α2C: evaluated as active or functionally selective agonist” value is recorded as “active or functionally selective agonists of the α2C receptor subtype”.

Consider `CCN(C(=O)OCc1cn(C)cn1)c1ccc2c(c1)N(Cc1c[nH]cn1)CCO2` [Compound 287], for which the “Efficacy agonist activity (Emax, GTPγS assay) for α2C: evaluated as active or functionally selective agonist” value was “active or functionally selective agonists of the α2C receptor subtype”.

In the case of `CSc1ccc2c(c1)N(Cc1c[nH]cn1)CCO2` [Compound 14B], the “Efficacy agonist activity (Emax, GTPγS assay) for α2C: evaluated as active or functionally selective agonist” value was “active or functionally selective agonists of the α2C receptor subtype”.

With `CCCCCCOC(=O)N(C)c1ccc2c(c1)N(Cc1c[nH]cn1)CCO2` [Compound 263], the “Efficacy agonist activity (Emax, GTPγS assay) for α2C: evaluated as active or functionally selective agonist” value is “active or functionally selective agonists of the α2C receptor subtype”.

`COc1ccc(-c2ccc3c(c2)N(Cc2c[nH]cn2)CCO3)cn1` [Compound 148]: the “Efficacy agonist activity (Emax, GTPγS assay) for α2C: evaluated as active or functionally selective agonist” value was “active or functionally selective agonists of the α2C receptor subtype”.

On to `CS(=O)(=O)c1ccc(COC(=O)Nc2ccc3c(c2)N(Cc2c[nH]cn2)CCO3)cc1` [Compound 309], for which the “Efficacy agonist activity (Emax, GTPγS assay) for α2C: evaluated as active or functionally selective agonist” value is listed as “active or functionally selective agonists of the α2C receptor subtype”.

On to `CNC(=O)N(C)c1cc(F)c2c(c1)N(Cc1c[nH]cn1)CCO2` [Compound 134], for which the “Efficacy agonist activity (Emax, GTPγS assay) for α2C: evaluated as active or functionally selective agonist” value is given as “active or functionally selective agonists of the α2C receptor subtype”.

As for `CNC(=O)N(C)c1ccc2c(c1)N(C(C#N)c1c[nH]cn1)CCO2` (centres unmarked) [Compound 168], the “Efficacy agonist activity (Emax, GTPγS assay) for α2C: evaluated as active or functionally selective agonist” value is reported as “active or functionally selective agonists of the α2C receptor subtype”.

Consider `O=C(NCc1ccccn1)Nc1ccc2c(c1)N(Cc1c[nH]cn1)CCO2` [Compound 291], for which the “Efficacy agonist activity (Emax, GTPγS assay) for α2C: evaluated as active or functionally selective agonist” value was “active or functionally selective agonists of the α2C receptor subtype”.

Turning to `COC(=O)Nc1ccc2c(c1)N(Cc1c[nH]cn1)CCS2` [Compound 24], the “Efficacy agonist activity (Emax, GTPγS assay) for α2C: evaluated as active or functionally selective agonist” value is given as “active or functionally selective agonists of the α2C receptor subtype”.

Regarding `CCN(C(=O)NOC)c1ccc2c(c1)N(Cc1c[nH]cn1)CCO2` [Compound 244], the “Efficacy agonist activity (Emax, GTPγS assay) for α2C: evaluated as active or functionally selective agonist” value is “active or functionally selective agonists of the α2C receptor subtype”.

For the compound `CC#CCOC(=O)N(CC)c1ccc2c(c1)N(Cc1c[nH]cn1)CCO2` [Compound 162], the “Efficacy agonist activity (Emax, GTPγS assay) for α2C: evaluated as active or functionally selective agonist” value is “active or functionally selective agonists of the α2C receptor subtype”.

For the compound `CCN(C(=O)OC)c1ccc2c(c1)N(Cc1c[nH]cn1)CCO2` [Compound 151], the “Efficacy agonist activity (Emax, GTPγS assay) for α2C: evaluated as active or functionally selective agonist” value was “active or functionally selective agonists of the α2C receptor subtype”.

Turning to `CCN(C(=O)OCCSC)c1ccc2c(c1)N(Cc1c[nH]cn1)CCO2` [Compound 319], the “Efficacy agonist activity (Emax, GTPγS assay) for α2C: evaluated as active or functionally selective agonist” value is recorded as “active or functionally selective agonists of the α2C receptor subtype”.

As to `O=[N+]([O-])c1ccc2c(c1)N(Cc1c[nH]cn1)CCCO2` [Compound 28D], the “Efficacy agonist activity (Emax, GTPγS assay) for α2C: evaluated as active or functionally selective agonist” value is given as “active or functionally selective agonists of the α2C receptor subtype”.

As for `N=C(N)c1cc(F)c2c(c1)N(Cc1c[nH]cn1)CCO2` [Compound 152], the “Efficacy agonist activity (Emax, GTPγS assay) for α2C: evaluated as active or functionally selective agonist” value is recorded as “active or functionally selective agonists of the α2C receptor subtype”.

Take `Nc1ccc2c(c1)N(Cc1c[nH]cn1)CCS2` [Compound 24D]: the “Efficacy agonist activity (Emax, GTPγS assay) for α2C: evaluated as active or functionally selective agonist” value was “active or functionally selective agonists of the α2C receptor subtype”.
